In test [1] the target is T1, Fatty-acid amide hydrolase 1 (Rattus norvegicus, UniProt P97612).
T1 sequence (P97612 whole entry): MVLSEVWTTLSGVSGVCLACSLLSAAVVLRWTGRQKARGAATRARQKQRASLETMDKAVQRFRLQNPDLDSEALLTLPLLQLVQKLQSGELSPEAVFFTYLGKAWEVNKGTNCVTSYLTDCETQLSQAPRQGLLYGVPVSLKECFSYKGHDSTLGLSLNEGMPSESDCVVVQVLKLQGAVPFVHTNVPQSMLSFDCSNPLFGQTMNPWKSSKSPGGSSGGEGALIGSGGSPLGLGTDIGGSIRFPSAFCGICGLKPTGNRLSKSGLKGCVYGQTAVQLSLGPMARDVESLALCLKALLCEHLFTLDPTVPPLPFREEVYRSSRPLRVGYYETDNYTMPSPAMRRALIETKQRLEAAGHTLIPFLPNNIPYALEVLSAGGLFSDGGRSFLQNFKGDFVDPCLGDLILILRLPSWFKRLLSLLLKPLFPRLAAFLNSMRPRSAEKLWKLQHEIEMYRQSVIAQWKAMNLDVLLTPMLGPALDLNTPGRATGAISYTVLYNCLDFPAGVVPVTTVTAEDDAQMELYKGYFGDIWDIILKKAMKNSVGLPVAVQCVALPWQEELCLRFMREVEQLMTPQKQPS
Kind of test: Inhibitory concentration against Fatty-acid amide hydrolase (FAAH) in rat liver.

Test [2] addresses T1, Fatty-acid amide hydrolase 1. Kind of test: Inhibitory constant against Fatty-acid amide hydrolase (FAAH) in rat liver. Type of test: tissue-based.

The compound `CCc1cc2cc3ccccc3cc2cc1CC(=O)C(F)(F)F` displayed an IC50 in test [1] greater than 100000 nM. The same compound registered a Ki in test [2] greater than 100000 nM.

Turning to `CCCCOC[C@@H]1CC=CC[C@H]1COCCCC(=O)C(F)(F)F`, in test [1], the IC50 is 2400 nM. For the same compound, the Ki in test [2] amounted to 440 nM.

In turn, `CCCCCCCC/C=C/CCCCCCCC(=O)C(F)(F)F` registered an IC50 in test [1] of 780 nM. The compound further registered an inhibitory constant (Ki) in test [2] of 170 nM.

`CCCCCCc1cccc(CCCCCCC(=O)C(F)(F)F)c1` showed an IC50 in test [1] of 760 nM. The same compound returned an inhibition constant Ki in test [2] of 140 nM.

In test [1], `O=C(CCCCCc1ccccc1)C(F)(F)F` registered a half-inhibitory concentration (IC50) of 840 nM. In test [2], this compound returned a Ki of 170 nM.

`CCCCOC[C@@H]1CCCC[C@H]1COCCCC(=O)C(F)(F)F` came in with a 50% inhibitory concentration (IC50) in test [1] of 9700 nM. In test [2], this compound returned a Ki of 1200 nM.

For `CCCCCCCC/C=C\CCCCCCCC(=O)C(F)(F)F`, in test [1], the 50% inhibitory concentration (IC50) turned out to be 460 nM. Further, the affinity in test [2] corresponds to a Ki of 82 nM.

Compound `CCCCCCCCc1ccccc1CCCCCCCC(=O)C(F)(F)F` had an IC50 in test [1] of 2500 nM. Moreover, the affinity in test [2], expressed as Ki, was 320 nM.

Consider `CCCCCCCCCCCCCC(=O)C(F)(F)F`, for which, in test [1], the half-maximal inhibitory concentration (IC50) was determined as 2300 nM. The affinity in test [2], expressed as Ki, was 490 nM.

As to `CCCCCCCCCCCCCCCCCC(=O)C(F)(F)F`, the IC50 in test [1] came to 1200 nM. The compound also showed a Ki in test [2] of 240 nM.

`CCCCCCCCCC(=O)C(F)(F)F` came in with an IC50 in test [1] of 600 nM. In test [2], this compound gave a Ki of 130 nM.

In turn, `CCCCCCCCCCCC(=O)C(F)(F)F` came in with an IC50 in test [1] of 130 nM. Affinity in test [2] was put at a Ki of 140 nM.

As to `CCCCCCC(=O)C(F)(F)F`, in test [1], the IC50 stood at 52800 nM. Besides, in test [2], the affinity, expressed as Ki, was 10700 nM.

The compound `CCCCc1cc2ccccc2cc1CCCC(=O)C(F)(F)F` came in with an IC50 in test [1] of 30100 nM. In test [2], this compound had a Ki of 4400 nM.

`CCCCCCCc1ccc(CCCCCCC(=O)C(F)(F)F)cc1` returned an IC50 in test [1] of 590 nM. The same compound registered an inhibition constant (Ki) in test [2] of 96 nM.

`CCCCOC[C@H]1CC=CC[C@H]1COCCCC(=O)C(F)(F)F`: the IC50 in test [1] amounted to 3000 nM. For the same compound, the Ki in test [2] is 570 nM.

In test [1], `O=C(CCCCCCc1ccccc1)C(F)(F)F` yielded a concentration for half-maximal inhibition (IC50) of 450 nM. Further, in test [2], the Ki is 100 nM.

The compound `O=C(CCCCCCCc1ccccc1)C(F)(F)F` registered a half-inhibitory concentration (IC50) in test [1] of 120 nM. In test [2], this compound returned a Ki of 25 nM.

`CCCCCCc1ccccc1CCCCCC(=O)C(F)(F)F` registered an IC50 in test [1] of 13100 nM. For the same compound, affinity in test [2] was put at a Ki of 2800 nM.

In test [1], `CCCCCCCC/C=C\CCCCCCCC(C)=O` came in with an IC50 greater than 100000 nM. This compound also gave a Ki in test [2] greater than 100000 nM.

`CCCCCC(=O)C(F)(F)F` registered a half-inhibitory concentration (IC50) in test [1] of 185000 nM. Moreover, the Ki in test [2] worked out at 26900 nM.

`CCCCCCCC(=O)C(F)(F)F` showed a half-maximal inhibitory concentration (IC50) in test [1] of 6600 nM. The Ki in test [2] was determined as 1200 nM.

In turn, `CCCCOC[C@H]1CCCC[C@H]1COCCCC(=O)C(F)(F)F` had an IC50 in test [1] of 5700 nM. Further, in test [2], the Ki is 780 nM.

What is called IC50 is the concentration needed to halve the response being measured. The low end stands for greater potency in that assay, the high end for weaker potency in that assay. One may read the Ki as a dissociation constant, usually derived from enzyme kinetics or from competition with a known ligand. A higher Ki goes with a looser hold on the target.

(Values after ChEMBL document CHEMBL1132027, “Trifluoromethyl ketone inhibitors of fatty acid amide hydrolase: a probe of structural and conformational features contributing to inhibition” (Bioorg Med Chem Lett, 1999).)
